{
  "source": "patent US20190369111A1",
  "about": "“MOLECULAR KINETICS EVALUATION METHOD AND SCREENING METHOD” (Tokyo University of Science Foundation, priority 2016, published 2019)",
  "molecular_target": "T1, MDM2 protein (Homo sapiens, UniProt Q00987)",
  "T1 construct": "an endogenous wild-type p53 protein and MDM2 protein in HCT116 cells (human large intestine cancer cells); endogenous in cells; host or cells: HCT116 cells",
  "T1 sequence (Q00987 whole entry)": "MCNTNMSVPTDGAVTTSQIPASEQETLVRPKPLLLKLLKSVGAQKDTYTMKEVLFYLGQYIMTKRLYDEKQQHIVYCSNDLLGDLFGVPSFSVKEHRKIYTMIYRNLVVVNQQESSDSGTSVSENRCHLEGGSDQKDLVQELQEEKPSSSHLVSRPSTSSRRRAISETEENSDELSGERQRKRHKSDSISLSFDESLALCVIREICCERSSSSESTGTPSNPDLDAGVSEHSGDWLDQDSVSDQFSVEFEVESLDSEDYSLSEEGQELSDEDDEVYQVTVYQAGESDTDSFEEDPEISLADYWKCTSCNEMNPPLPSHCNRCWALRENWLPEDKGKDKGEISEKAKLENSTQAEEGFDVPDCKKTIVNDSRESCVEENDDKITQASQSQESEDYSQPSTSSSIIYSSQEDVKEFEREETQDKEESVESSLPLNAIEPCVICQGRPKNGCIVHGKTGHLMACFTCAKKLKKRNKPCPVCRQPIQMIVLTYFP",
  "experiment": "Degradation of endogenous MDM2 protein in HCT116 cells, Western blot analysis",
  "assay_type": "cell-based",
  "conditions": "48 hours after addition",
  "protocol": "HCT116 cells were seeded in a 24-well plate at a cell density of 8×10^4 cells/well, and then cultured under conditions of 37° C. and 5 vol % CO2 for 16 hours.\nAfter 16 hours from cell seeding, TIBC-CANDDY_MLN or TIBC was added to HCT116 cells as follows. As a medium, a serum-free medium (37° C.) in which 1 mass % L-glutamine solution (Sigma-Aldrich) was added to D-MEM (high D-glucose, phenol red, sodium pyruvate (Wako Pure Chemical Industries, Ltd.)) was used. It is noted that the L-glutamine solution was added immediately before use. A DMSO solution containing TIBC-CANDDY_MLN or TIBC was mixed with the medium so that the concentration of DMSO was 1 vol %, and added to each well at 500 μL/well, and cultured under conditions of 37° C. and 5 vol % CO2. As a control, DMSO was used.\nThe medium was removed 48 hours after addition of TIBC-CANDDY_MLN or TIBC, and then PBS was added to wash the cells. […]\nAfter electrophoresis, proteins were transferred to a PVDF membrane (Immobion™-P, Millipore) under conditions of 100 V and 2 hours using a tank-type blotting device and a transfer buffer (25 mM Tris-HCl, 195 mM glycine, 0.01% SDS, 15% methanol). […] Subsequently, the membrane was treated with a chemiluminescence reagent Immobilon™ Western (Millipore), and then chemiluminescence was detected using a lumino image analyzer LAS-3000 (FUJIFILM Corporation).",
  "data": [
    {"smiles": "CC(C)C[C@H](NC(=O)CNC(=O)c1cc(Cl)ccc1Cl)C(=O)NCCCCCCC(=O)Nc1ccc(C(=O)/C=C/c2ccc(I)cc2)cc1", "note": "[TIBC-CANDDY_MLN]", "values": [
      {"measurement": "amount of endogenous MDM2 protein", "value": "reduced"}
    ]}
  ]
}
